Reference: US7045516B1, “Benzoxazole derivatives and drugs containing the same as the active ingredient” (Koichi Shudo, priority 1998, dated 2006)
Where two headings read alike, the source gives them in different places.

How the values were obtained:
[1] = test system: rat diarrhea under restriction stress; experiment: Inhibitory action for rat diarrhea under restriction stress; type: in vivo; details: oral, 30 min before restraint, male Wistar rats, 3 hours, nonlinear least square method
Procedure: L. Williams et al. [GASTROENTEROLOGY, 94, 611–621 (1988)] was determined as follows, and the results were analyzed by the nonlinear least square method. 8-Week old male Wistar rats were starved from the evening of the day before the test. Each test compound was orally administered to the rats. After 30 minutes, the rats were constrained by binding of their fore-limbs and hind-limbs with wires. The rats were left in individual gages on white sheets under luminescent lamps for 3 hours. […] The test was performed with groups of rats each consisting of 8 rats.

Reverse mutation test = experiment: Reverse mutation test
Procedure: A reverse mutagenicity test was performed using the compound of Example 1 (b) of the present specification, hydrochloride of 5,7-dimethyl-2-(1-piperazinyl)benzoxazole (C), hydrochloride of 5-chloro-7-methyl-2-(4-methyl-1-piperazinyl)benzoxazole (D), and hydrochloride of 5-chloro-7-methyl-2-(4-methyl-1-homopiperazinyl) benzoxazole (E) (compounds disclosed in Japanese Patent Publication (KOKAI) No. 10-29987/1998), and the compound described in Reference Example 4 of the present specification, i.e., hydrochloride of 5-chloro-7-methyl-2-(1-piperazinyl) benzoxazole (F) according to the method of T. Matsushima et al. (Noropoth K. H., Springer, Berlin-Heidelberg-New York, “Short-Term Test Systems For Detecting Carcinogens”, pp. 273–285, 1980) referred by the guideline 471 of ORGANIZATION FOR ECONOMIC CO-OPERATION AND DEVELOPMENT.

[2] = test system: large bowel transportation ability of normal mice; experiment: Effect on large bowel transportation ability of normal mice (glass bead excretion); type: in vivo, mouse; details: ddY male mice, bead inserted after 30 minutes
Procedure: G. et al. [Drug Dev. Res., 9, 241-247, (1986)] was determined as follows. Each test compound was orally administered to 5- to 7-week old ddY male mice starved for about 4 hours. […] After the insertion of the glass bead, time (second) from the insertion to excretion of the bead from the anus was measured, and the time was used as an index of large bowel transportation ability. The test was performed by using groups of mice each consisting of 9 to 11 mice, and all of the procedures were performed under no anesthesia.

[3] = Toxicity test, oral administration to mice; type: in vivo; details: 300 mg/kg, suspended in distilled water, 7-week old male mice
Procedure: The compound of Example 1 (b) gave no death of the animal at a dose of 300 mg/kg.

[4] = Metabolic activity in human liver, in vitro system with S9 fraction; type: in vitro ADME; details: 50 μmol/L test compound, 1 mg/mL human liver S9, NADPH production system, 37 °C, 15 minutes
Procedure: The test was performed in an in vitro system utilizing human liver S9 fraction in the presence of an NADPH production system described below. A reaction mixture of a total volume of 125 μL containing components at given final concentrations was prepared (50 μmol/L of test compound, 6 mmol/L of MgCl2.6H2O, 1 mmol/L of β-NADP^+, 10 mmol/L of glucose-6-phosphate (G-6-P), 0.7 U/mL of G-6-P dehydrogenase, 100 mmol/L of potassium phosphate (pH 7.4), 0.1 mmol/L of EDTANa2, and 1 mg/mL of human liver S9), and incubated at 37 C.° for 15 minutes. The reaction was stopped by the addition of 125 μL of N,N-dimethylformamide containing a substance for internal standard. The reaction mixture was centrifuged (2,000×g, 10 minutes), and the supernatant was subjected to HPLC analysis to determine the concentration of unchanged substance. Consumed amount was calculated from the concentration of unchanged substance, and the metabolic rate was represented as activity per unit amount of protein.

| Compound | ED50 ([1]; Rattus norvegicus) | reverse mutagenicity (Reverse mutation test) | time from insertion to excretion of glass bead ([2]; dose 3 mg/kg oral) | time from insertion to excretion of glass bead ([2]; dose 10 mg/kg oral) | time from insertion to excretion of glass bead ([2]; dose 30 mg/kg oral) | death of the animal [3] | ED50 value [1] | reverse mutagenicity (Reverse mutation test; method of Matsushima et al., OECD guideline 471) | Metabolic activity [4] |
| --- | --- | --- | --- | --- | --- | --- | --- | --- | --- |
| Cc1cc(Cl)cc2nc(N3CCCNCC3)oc12.Cl [Example 1 (b), 5-Chloro-2-(1-homopiperazinyl)-7-methylbenzoxazole hydrochloride] | 0.25 µg/kg | negative | 218.39 s | 313.60 s | 239.11 s | no death | – | – | – |
| Cc1cc(C)c2oc(N3CCNCC3)nc2c1.Cl [Hydrochloride of C, hydrochloride of 5,7-dimethyl-2-(1-piperazinyl)benzoxazole] | – | – | 234.01 s | 251.00 s | 357.08 s | – | 27.2 µg/kg | negative | 0.06 nmol/min/mg protein |
